Test results: patent US10221178B2, “Purine inhibitors of human phosphatidylinositol 3-kinase delta” (MERCK SHARP & DOHME CORP., priority 2015, dated 2019)

Tests used:
[1] = molecular target: PI3Kalpha (Homo sapiens (Human), UniProt P42336); test: HTRF PI3K biochemical assay, alpha isoform (selectivity versus PI3Kalpha); settings: relative ratio (PI3K-alpha IC50 value/PI3K-delta IC50 value); form screened: Neutral
Source text: (§1) HTRF PI3K Biochemical Assay to Measure Intrinsic Potency of Compound Inhibitors
(§2) The PI3-Kinase biochemical assays were developed to measure the intrinsic potency and compound dependent inhibition of the alpha, beta, delta, and gamma PI3K isoform enzymes.
(§3) This assay was developed and further optimized from a kit produced by Upstate (Millipore catalog #33-047) and has been configured for HTS (high throughput screening) and SAR screening. Briefly, this procedure exploits the exquisite specificity and high affinity binding of enzyme reaction substrate phosphatidyl(3,4,5)triphosphate (PIP3) to the GRP1 pleckstrin homology (PH) domain to generate the signal. In the absence of PIP3, an HTRF (Homogeneous Time-Resolved Fluorescence energy transfer) complex is formed consisting of europium (Eu)-labeled anti-GST, GSTtagged GRP1-PH domain, biotin-PIP3 and streptavidin conjugated APC. The native PIP3 produced by PI3-Kinase activity disrupts in a competitive manner the biotin-PIP3 from the PH domain, resulting in the loss of energy transfer (HTRF complex) and a decrease in the signal. The format of this assay is the same for all 4 isoforms of PI3K; the differences lie in the concentration of enzyme used to achieve robust assay window. The alpha, beta, and delta assays are run at 0.5, 1, and 0.3 nM enzymes and the gamma assay is run at 5 nM enzyme. The ATP concentration is 100 uM in the alpha, beta, and delta assays and 50 uM ATP in the gamma assay. All reactions are run at 5 uM PIP2.
(§4) Compounds are serially diluted (3-fold in 100% DMSO) across a 384-well polypropylene source plated from column 3 to column 12 and column 13 to column 22, to yield 10 concentration dose response for each test compound. Columns 1, 2, 23 and 24 contain either only DMSO or pharmacological known control inhibitor. Once titrations are made, 2.5 nL of the compounds on 384 well plates are reformatted and transferred by acoustic dispense in quadruplicates to a 1536 assay plate (Greiner) to assay across all four PI3K isoform enzymes.
(§5) The PI3-Kinase biochemical assay was optimized using the HTRF kit provided by Upstate (Millipore). The assay kit contains six reagents: 1) 4× Reaction Buffer; 2) native PIP2 (substrate); 3) Stop (EDTA); 4) Detection Mix A (Streptavidin-APC); 5) Detection Mix B (Eu-labeled Anti-GST plus GST-tagged PH-domain); 6) Detection Mix C. In addition, the following items were obtained or purchased; PI3Kinase (alpha 14-602, beta 14-603, gamma 14-558 and delta 14-604 from Upstate; Millipore), dithiothreitol (Sigma, D-5545), Adenosine-5′ triphosphate (InVitrogen, Cat#AS001A), native PIP3 (PI(3,4,5)P3, diC8, H^+, CELLSIGNALS, INC. Cat #907) DMSO (Sigma, 472301).
PI3Kinase Reaction Buffer is prepared by dilution the stock 1:4 with de-ionized water. DTT, PIP2 and Biotin-PIP3 were added to 1536 assay plate at a final concentration of 5 mM, […] on the day of use. Enzyme addition and compound pre-incubation are initiated by the addition of 1.25 ul of PI3K (at twice its final concentration) in the 1× reaction buffer to all wells using a BioRaptor. Plates are incubated at RT for 15 minutes. Reactions are initiated by addition of 1.25 ul of 2× substrate solution (PIP2 and ATP in 1× reaction buffer) using BioRaptor. Plates are incubated in humidified chamber at RT for one hour. Reactions are quenched by addition of 0.625 uL of stop solution to all wells using the BioRaptor. The quenched reactions are then processed to detect product formation by adding 0.625 uL of Detection Solution to all wells using the BioRaptor (Detection mix C, Detection Mix A, and Detection Mix B combined together in an 18:1:1 ratio prepared 2 hours prior to use). Following a one hour incubation in the dark, the HTRF signal is measured on the Envision plate reader set for 330 nm excitation and dual emission detection at […]. […]

[2] = molecular target: PI3Kdelta (Homo sapiens (Human), UniProt O00329); test: HTRF PI3K biochemical assay, delta isoform; settings: 0.3 nM enzyme, 100 uM ATP, 5 uM PIP2, form screened: Neutral
Sequence of PI3Kdelta (O00329 whole entry, canonical isoform): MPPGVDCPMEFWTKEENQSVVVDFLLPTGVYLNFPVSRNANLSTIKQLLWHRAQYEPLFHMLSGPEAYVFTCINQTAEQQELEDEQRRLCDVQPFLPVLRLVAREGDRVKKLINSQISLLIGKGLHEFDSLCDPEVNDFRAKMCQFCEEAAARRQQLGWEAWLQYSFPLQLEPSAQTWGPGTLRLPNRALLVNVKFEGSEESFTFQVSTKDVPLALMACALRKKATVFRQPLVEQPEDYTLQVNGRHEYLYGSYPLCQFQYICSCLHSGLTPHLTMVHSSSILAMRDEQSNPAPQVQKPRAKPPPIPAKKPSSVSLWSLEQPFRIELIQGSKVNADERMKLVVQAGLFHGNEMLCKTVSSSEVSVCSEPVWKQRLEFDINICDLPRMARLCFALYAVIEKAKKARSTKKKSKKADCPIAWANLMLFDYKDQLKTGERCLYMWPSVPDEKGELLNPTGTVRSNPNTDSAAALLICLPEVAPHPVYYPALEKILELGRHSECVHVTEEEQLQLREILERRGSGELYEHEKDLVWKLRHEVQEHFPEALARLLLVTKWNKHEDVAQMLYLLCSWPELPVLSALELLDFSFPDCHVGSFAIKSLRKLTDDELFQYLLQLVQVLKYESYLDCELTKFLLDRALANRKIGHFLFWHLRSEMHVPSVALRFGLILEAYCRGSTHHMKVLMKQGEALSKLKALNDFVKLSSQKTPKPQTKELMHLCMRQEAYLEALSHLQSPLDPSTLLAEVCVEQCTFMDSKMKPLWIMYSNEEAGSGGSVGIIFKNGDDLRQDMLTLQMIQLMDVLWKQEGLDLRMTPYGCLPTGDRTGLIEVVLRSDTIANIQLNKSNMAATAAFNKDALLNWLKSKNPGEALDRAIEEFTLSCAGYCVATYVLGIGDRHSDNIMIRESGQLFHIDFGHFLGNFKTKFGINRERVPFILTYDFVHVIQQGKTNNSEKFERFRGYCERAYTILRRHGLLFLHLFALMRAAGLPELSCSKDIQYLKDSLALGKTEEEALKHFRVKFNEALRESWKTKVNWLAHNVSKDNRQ
Sequence of PI3Kdelta (P27986 whole entry partner, canonical isoform): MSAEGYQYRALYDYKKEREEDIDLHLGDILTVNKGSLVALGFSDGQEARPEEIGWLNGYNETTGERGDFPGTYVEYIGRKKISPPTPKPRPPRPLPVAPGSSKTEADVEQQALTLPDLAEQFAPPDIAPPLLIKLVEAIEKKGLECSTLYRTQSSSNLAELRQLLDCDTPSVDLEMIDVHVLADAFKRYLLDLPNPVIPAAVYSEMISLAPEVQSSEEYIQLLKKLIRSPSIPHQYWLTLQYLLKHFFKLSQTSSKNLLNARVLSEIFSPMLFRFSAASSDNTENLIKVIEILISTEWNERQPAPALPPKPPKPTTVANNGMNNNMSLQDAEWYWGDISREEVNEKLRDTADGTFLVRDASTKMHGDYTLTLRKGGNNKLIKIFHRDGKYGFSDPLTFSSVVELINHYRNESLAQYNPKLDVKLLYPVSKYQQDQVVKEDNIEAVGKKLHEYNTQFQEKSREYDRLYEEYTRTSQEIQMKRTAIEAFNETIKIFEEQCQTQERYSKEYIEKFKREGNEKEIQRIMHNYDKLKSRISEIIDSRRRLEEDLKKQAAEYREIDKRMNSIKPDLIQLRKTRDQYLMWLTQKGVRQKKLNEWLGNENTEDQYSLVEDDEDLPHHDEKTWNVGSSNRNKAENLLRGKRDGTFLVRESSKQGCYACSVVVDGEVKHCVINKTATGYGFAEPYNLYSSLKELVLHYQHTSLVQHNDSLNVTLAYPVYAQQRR
Source text: as §1, §2, §3, §4, §5
PI3Kinase Reaction Buffer is prepared by dilution the stock 1:4 with de-ionized water. DTT, PIP2 and Biotin-PIP3 were added to 1536 assay plate at a final concentration of 5 mM, […] on the day of use. Enzyme addition and compound pre-incubation are initiated by the addition of 1.25 ul of PI3K (at twice its final concentration) in the 1× reaction buffer to all wells using a BioRaptor. Plates are incubated at RT for 15 minutes. Reactions are initiated by addition of 1.25 ul of 2× substrate solution (PIP2 and ATP in 1× reaction buffer) using BioRaptor. Plates are incubated in humidified chamber at RT for one hour. Reactions are quenched by addition of 0.625 uL of stop solution to all wells using the BioRaptor. The quenched reactions are then processed to detect product formation by adding 0.625 uL of Detection Solution to all wells using the BioRaptor (Detection mix C, Detection Mix A, and Detection Mix B combined together in an 18:1:1 ratio prepared 2 hours prior to use). Following a one hour incubation in the dark, the HTRF signal is measured on the Envision plate reader set for 330 nm excitation and dual emission detection at 620 nM (Eu) and 665 nM (APC).

Sequence of PI3Kalpha (P42336 whole entry, canonical isoform): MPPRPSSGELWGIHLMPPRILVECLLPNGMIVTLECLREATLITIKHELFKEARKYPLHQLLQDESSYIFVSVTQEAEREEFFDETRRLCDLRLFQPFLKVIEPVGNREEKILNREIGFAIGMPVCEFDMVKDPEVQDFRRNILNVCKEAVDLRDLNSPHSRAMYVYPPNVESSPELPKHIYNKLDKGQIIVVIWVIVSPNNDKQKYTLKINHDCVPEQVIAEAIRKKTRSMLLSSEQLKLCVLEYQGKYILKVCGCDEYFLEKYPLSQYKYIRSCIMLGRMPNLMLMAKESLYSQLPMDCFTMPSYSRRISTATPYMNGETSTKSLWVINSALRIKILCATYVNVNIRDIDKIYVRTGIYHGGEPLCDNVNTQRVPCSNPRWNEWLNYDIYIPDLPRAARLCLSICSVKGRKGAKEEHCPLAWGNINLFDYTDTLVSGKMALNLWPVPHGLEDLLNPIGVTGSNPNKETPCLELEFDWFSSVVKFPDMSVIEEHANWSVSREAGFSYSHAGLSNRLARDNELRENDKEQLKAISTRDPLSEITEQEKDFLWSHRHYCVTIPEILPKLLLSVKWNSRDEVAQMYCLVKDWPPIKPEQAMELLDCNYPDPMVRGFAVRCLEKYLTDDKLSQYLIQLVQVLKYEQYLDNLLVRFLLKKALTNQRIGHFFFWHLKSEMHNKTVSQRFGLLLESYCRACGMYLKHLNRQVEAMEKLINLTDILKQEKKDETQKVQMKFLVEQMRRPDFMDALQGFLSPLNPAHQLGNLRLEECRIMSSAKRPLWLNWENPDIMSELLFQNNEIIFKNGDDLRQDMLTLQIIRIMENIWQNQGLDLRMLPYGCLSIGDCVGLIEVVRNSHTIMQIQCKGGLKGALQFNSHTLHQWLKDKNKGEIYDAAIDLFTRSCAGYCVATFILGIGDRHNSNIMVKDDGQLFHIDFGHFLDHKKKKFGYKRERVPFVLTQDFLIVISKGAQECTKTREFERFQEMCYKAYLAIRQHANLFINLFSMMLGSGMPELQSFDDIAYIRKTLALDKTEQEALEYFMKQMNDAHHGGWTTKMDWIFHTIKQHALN
Sequence of PI3Kalpha (P27986 whole entry partner, canonical isoform): as the sequence (P27986 whole entry partner, canonical isoform) above

Row | Structure (SMILES) | Selectivity versus PI3Kalpha [1] | IC50 [2]
1 | CC[C@H](Nc1ncnc2c1nc(-c1cnc(C)nc1)n2CC)C(=O)N1CCCC(OC)CC1 (mixture of isomers) [Compound 2-9, 9-ethyl-N-{(1S)-1-[(4-methoxyazepan-1-yl)carbonyl]propyl}-8-((R and S)-2-methylpyrimidin-5-yl)-9H-purin-6-amine] | >10 | 23 nM
2 | CCn1c(-c2cnc(C)nc2)nc2c(N[C@H](C(=O)N3C[C@@H](C)O[C@@H](C)C3)c3ccccc3)ncnc21 [Compound 2-43, N-{(1S)-2-[(cis)-2,6-dimethylmorpholin-4-yl]-2-oxo-1-phenylethyl}-9-ethyl-8-(2-methylpyrimidin-5-yl)-9H-purin-6-amine] | >10 | 87 nM
3 | CCn1c(-c2cnc(C)nc2)nc2c(N[C@@H](C)CC(=O)N3C[C@@H](C)O[C@@H](C)C3)ncnc21 [Compound 2-53, N-{(1S)-3-[(cis)-2,6-dimethylmorpholin-4-yl]-1-methyl-3-oxopropyl}-9-ethyl-8-(2-methylpyrimidin-5-yl)-9H-purin-6-amine] | >10 | 37 nM
4 | CC[C@H](Nc1ncnc2c1nc(-c1cnc(C)nc1)n2CC)C(=O)N1CCOC[C@@H]1C [Compound 2-26, 9-ethyl-N-[(1S)-1-{[(3S)-3-methylmorpholin-4-yl]carbonyl}propyl]-8-(2-methylpyrimidin-5-yl)-9H-purin-6-amine] | >10 | 32 nM
5 | CCn1c(-c2cnc(C)nc2)nc2c(NC3(C(=O)N4CCC(F)(F)CC4)CC3)ncnc21 [Compound 2-3, N-{1-[(4,4-difluoropiperidin-1-yl)carbonyl]cyclopropyl}-9-ethyl-8-(2-methylpyrimidin-5-yl)-9H-purin-6-amine] | >10 | 590 nM
6 | CC[C@H](Nc1ncnc2c1nc(-c1cnc(C)nc1)n2CC)C(=O)N1CC2(CCCC2)C1 [Compound 2-21, N-[(1S)-1-(2-azaspiro[3.4]oct-2-ylcarbonyl)propyl]-9-ethyl-8-(2-methylpyrimidin-5-yl)-9H-purin-6-amine] | >10 | 14 nM
7 | CCC[C@H](Nc1ncnc2c1nc(-c1cnc(C)nc1)n2CC)C(=O)N1C[C@@H](C)O[C@@H](C)C1 [Compound 2-45, N-[(1S)-1-{[(cis)-2,6-dimethylmorpholin-4-yl]carbonyl}butyl]-9-ethyl-8-(2-methylpyrimidin-5-yl)-9H-purin-6-amine] | >10 | 26 nM
8 | CCn1c(-c2cnc(C)nc2)nc2c(NCC3(C(=O)N4CCCC4)CC3)ncnc21 [Compound 2-61, 9-ethyl-8-(2-methylpyrimidin-5-yl)-N-{[1-(pyrrolidin-1-ylcarbonyl)cyclopropyl]methyl}-9H-purin-6-amine] | >10 | 93 nM
9 | CCn1c(C(F)F)nc2c(N[C@@H](C)C(=O)N3C[C@@H](C)O[C@@H](C)C3)ncnc21 [Compound 2-5, 8-(difluoromethyl)-N-{(1S)-2-[(cis)-2,6-dimethylmorpholin-4-yl]-1-methyl-2-oxoethyl}-9-ethyl-9H-purin-6-amine] | >10 | 230 nM
10 | CC[C@H](Nc1ncnc2c1nc(-c1ccc(C(F)(F)F)nc1)n2CC)C(=O)N1C[C@@H](C)O[C@@H](C)C1 [Compound 2-7, N-[(1S)-1-{[(cis)-2,6-dimethylmorpholin-4-yl]carbonyl}propyl]-9-ethyl-8-[6-(trifluoromethyl)pyridin-3-yl]-9H-purin-6-amine] | >10 | 2.8 nM
11 | CCC(Nc1ncnc2c1nc(-c1cnn(CC)c1C)n2C)C(=O)N1CCC(F)(F)CC1 (racemic) [Compound 1-5, (R and S)-N-{1-[(4,4-difluoropiperidin-1-yl)carbonyl]propyl}-8-(1-ethyl-5-methyl-1H-pyrazol-4-yl)-9-methyl-9H-purin-6-amine] | >10 | 9 nM

The next lines start with the values.

Row | Selectivity versus PI3Kalpha [1] | IC50 [2] | Structure (SMILES)
12 | >10 | 4.8 nM | CC[C@H](Nc1ncnc2c1nc(-c1cnc(C)nc1)n2CC)C(=O)N1C[C@@H](C)C(F)(F)[C@@H](C)C1 [Compound 4-4, N-[(1S)-1-{[cis-4,4-difluoro-3,5-dimethylpiperidin-1-yl]carbonyl}propyl]-9-ethyl-8-(2-methylpyrimidin-5-yl)-9H-purin-6-amine]
13 | >10 | 38 nM | CCC(Nc1ncnc2c1nc(-c1cnc(C)nc1)n2CC)C(=O)N1CCn2c(CC(C)C)nnc2C1 (single isomer, unassigned) [Compound 5-1, (S or R)-9-ethyl-N-(1-{[3-(2-methylpropyl)-5,6-dihydro[1,2,4]triazolo[4,3-a]pyrazin-7(8H)-yl]carbonyl}propyl)-8-(2-methylpyrimidin-5-yl)-9H-purin-6-amine]
14 | >10 | 5.5 nM | CC[C@H](Nc1ncnc2c1nc(-c1cnc(C)nc1)n2CC)C(=O)N1C[C@@H](C)N(C)[C@@H](C)C1 [Compound 4-3, 9-ethyl-8-(2-methylpyrimidin-5-yl)-N-[(1S)-1-{[cis-3,4,5-trimethylpiperazin-1-yl]carbonyl}propyl]-9H-purin-6-amine]
15 | >10 | 19 nM | CC[C@H](Nc1ncnc2c1nc(-c1cnc(C)nc1)n2CC)C(=O)N1CC(=O)NC(C)(C)C1 [Compound 4-7, 4-[(2S)-2-{[9-ethyl-8-(2-methylpyrimidin-5-yl)-9H-purin-6-yl]amino}butanoyl]-6,6-dimethylpiperazin-2-one]
16 | >10 | 5.2 nM | CCn1c(-c2cnc(C)nc2)nc2c(NC(C(=O)N3C[C@@H](C)O[C@@H](C)C3)C3CC3)ccnc21 (single isomer, unassigned) [Compound 3-4, N-{(R or S)-1-cyclopropyl-2-[(cis)-2,6-dimethylmorpholin-4-yl]-2-oxoethyl}-3-ethyl-2-(2-methylpyrimidin-5-yl)-3H-imidazo[4,5-b]pyridin-7-amine]
17 | >10 | 8.6 nM | CCn1c(-c2cnc(C)nc2)nc2c(N[C@H](C(=O)N3C[C@@H](C)O[C@@H](C)C3)[C@@H](C)OC)ccnc21 [Compound 3-3, N-[(1S,2R)-1-{[(cis)-2,6-dimethylmorpholin-4-yl]carbonyl}-2-methoxypropyl]-3-ethyl-2-(2-methylpyrimidin-5-yl)-3H-imidazo[4,5-b]pyridin-7-amine]
